# Columns and labels:
# MDA-MB-231 cell pAxl = target: T1, MDA-MB-231 cell pAxl (Homo sapiens, UniProt P30530); assay: Inhibitory activity on cell pAxl, MDA-MB-231 cells, hGAS6 stimulation, Western Blot; format: cell-based; settings: hGAS6 200 ng/mL
# T1 construct: endogenous in cells; host or cells: MDA-MB-231
# T1 sequence (P30530 26-894): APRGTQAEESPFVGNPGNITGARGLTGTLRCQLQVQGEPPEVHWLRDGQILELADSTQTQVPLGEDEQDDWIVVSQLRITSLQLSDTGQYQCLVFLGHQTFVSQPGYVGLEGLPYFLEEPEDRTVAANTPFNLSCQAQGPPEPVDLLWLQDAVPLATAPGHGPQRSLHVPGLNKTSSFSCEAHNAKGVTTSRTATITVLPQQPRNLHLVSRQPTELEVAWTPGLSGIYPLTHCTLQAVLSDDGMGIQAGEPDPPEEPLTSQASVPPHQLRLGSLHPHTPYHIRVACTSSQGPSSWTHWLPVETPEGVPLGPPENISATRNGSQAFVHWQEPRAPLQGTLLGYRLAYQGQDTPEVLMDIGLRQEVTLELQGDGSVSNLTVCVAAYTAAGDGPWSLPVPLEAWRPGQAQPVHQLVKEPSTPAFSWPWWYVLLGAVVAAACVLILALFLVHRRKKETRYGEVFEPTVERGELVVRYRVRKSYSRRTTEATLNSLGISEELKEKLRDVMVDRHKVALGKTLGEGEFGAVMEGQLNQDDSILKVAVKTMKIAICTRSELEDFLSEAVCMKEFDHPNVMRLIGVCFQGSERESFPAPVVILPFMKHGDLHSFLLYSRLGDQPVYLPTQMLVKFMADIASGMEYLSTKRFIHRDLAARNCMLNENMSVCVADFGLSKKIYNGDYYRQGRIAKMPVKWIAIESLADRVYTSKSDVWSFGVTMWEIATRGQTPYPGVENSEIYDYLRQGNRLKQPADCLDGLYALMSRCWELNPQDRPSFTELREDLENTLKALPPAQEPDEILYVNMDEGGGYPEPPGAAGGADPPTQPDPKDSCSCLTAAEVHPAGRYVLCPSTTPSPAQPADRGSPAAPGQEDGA
# Description: MDA-MB-231 is a breast cancer cell.
# MDA-MB-231 cells were inoculated to a 6-well plate (containing 10% FBS DMEM medium, […] cells per well) and adherently cultivated at 37° C., and 5% CO2 for 18 hrs. The cells were starved overnight, and then compound solutions with different concentrations were added. Compounds 1 and 2 had final concentrations of 1.1, 3.3 and 10 nM, and the remaining compounds had final concentrations of 1.1, 3.3, 10 and 30 nM. […] There was a medium containing 1‰DMSO in the negative control well. The cells were incubated at 37° C., and 5% CO2 for 60 min, and then hGAS6 (R&D, final concentration: 200 ng/mL) was added to each well. The cells were further incubated for 60 min, and then the total protein of the cells was extracted for Western Blot experiment. Gray analysis was performed on the results with Image J software, and IC50 values were calculated with GraphPad 5.0 software. The inhibitory activities of the compounds on cell pAxl were detected.
# [1] = Liver microsomal stability; format: in vitro ADME; settings: mouse liver microsomes, 0.5 mg protein/mL, 1 μM compound
# Description: An appropriate amount of the compound was precisely weighed and dissolved in DMSO to prepare a 5.0 mM stock solution. The 5.0 mM stock solution was diluted with DMSO to 1.0 mM, and finally diluted with water to a 10 μM working solution of the test sample for use (the DMSO content in the reaction system was 0.1%).
# (1) The liver microsomes (20 mg protein/mL) were taken from a −80° C. refrigerator, pre-incubated on a 37° C. water bath thermostatic oscillator for 3 min, and thawed for use.
# (2) An incubation system (without compound and β-NADPH) was prepared according to “composition of the incubation system” described above, and pre-incubated on a 37° C. water bath thermostatic oscillator for 2 min.
# (3) Control group (without β-NADPH): 30 μL of water and 30 μL of compound working solution (10 μM) were added to 240 μL of the incubation system in step (2), and the reaction system was vortexed for 30 s and thoroughly mixed. The total volume of the reaction system was 300 μL. The sample was duplicated. The reaction solution was placed on a 37° C. water bath thermostatic oscillator for incubation, and timing was started. The sampling was conducted at 0 min and 60 min.
# (4) Sample group: 70 μL of β-NADPH solution (10 mM) and 70 μL of compound working solution (10 μM) were added to 560 μL of the incubation system in step (2), and the total volume of the reaction system was 700 μL. The reaction solution was vortexed for 30 s and thoroughly mixed. The sample was duplicated. The reaction solution was placed on a 37° C. water bath thermostatic oscillator for incubation, and timing was started. The sampling was conducted at 0 min, 5 min, 10 min, 20 min, 30 min and 60 min.
# (5) The reaction solution was vortexed for 3 min, and centrifuged at 12,000 rpm for 5 min.
# (6) 50 μL of the supernatant was added to 150 μL of water, and the resulting solution was thoroughly vortexed and analyzed by LC/MS/MS.
SMILES,IC50 (MDA-MB-231 cell pAxl),half-life at 1 μM [1],microsomal CLint at 1 μM [1]
"COc1cc2nccc(Oc3ccc(NC(=O)c4cn(CC5CCOCC5)cc(-c5ccc(C)cc5)c4=O)nc3)c2cc1OC [Compound 1, N-(5-((6,7-dimethoxyquinolin-4-yl)oxy)pyridin-2-yl)-4-oxo-1-((tetrahydro-2H-pyran-4-yl)methyl)-5-(p-tolyl)-1,4-dihydropyridin-3-carboxamide]",< 1.1 nM,,
"COc1cc2nccc(Oc3ccc(NC(=O)c4nn(CC5CCOCC5)cc(-c5ccc(C)cc5)c4=O)nc3)c2cc1OC [Compound 2, N-(5-((6,7-dimethoxyquinolin-4-yl)oxy)pyridin-2-yl)-4-oxo-1-((tetrahydro-2H-pyran-4-yl)methyl)-5-(p-tolyl)-1,4-dihydropyridazin-3-carboxamide]",< 1.1 nM,,
"COc1cc2nccc(Oc3cnc(NC(=O)c4cn(CC5CCOCC5)cc(-c5ccc(C)cc5)c4=O)nc3)c2cc1OC [Compound 4, N-(5-((6,7-dimethoxyquinolin-4-yl)oxy)pyrimidin-2-yl)-4-oxo-1-((tetrahydro-2H-pyran-4-yl)methyl)-5-(p-tolyl)-1,4-dihydropyridin-3-carboxamide]",< 1.1 nM,3.22 h,7.2 µL/min/mg
"COc1cc2nccc(Oc3ccc(NC(=O)c4cn(CC5CCS(=O)(=O)CC5)cc(-c5ccc(C)cc5)c4=O)nc3)c2cc1OC [Compound 7, N-(5-((6,7-dimethoxyquinolin-4-yl)oxy)pyridin-2-yl)-1-((1,1-dioxotetrahydro-2H-thiopyran-4-yl)methyl)-4-oxo-5-(p-tolyl)-1,4-dihydropyridin-3-carboxamide]",≤ 1.1 nM,,
"COc1cc2nccc(Oc3ccc(NC(=O)c4cn(CC5CC[S+]([O-])CC5)cc(-c5ccc(C)cc5)c4=O)nc3)c2cc1OC (stereo not shown) [Compound 8, N-(5-((6,7-dimethoxyquinolin-4-yl)oxy)pyridin-2-yl)-1-((1-oxotetrahydro-2H-thiopyran-4-yl)methyl)-4-oxo-5-(p-tolyl)-1,4-dihydropyridin-3-carboxamide]",≤ 1 nM,3.22 h,7.2 µL/min/mg
"COc1cc2nccc(Oc3ccc(NC(=O)c4cn(CC5CCSCC5)cc(-c5ccc(C)cc5)c4=O)nc3)c2cc1OC [Compound 9, N-(5-((6,7-dimethoxyquinolin-4-yl)oxy)pyridin-2-yl)-4-oxo-1-((tetrahydro-2H-thiopyran-4-yl)methyl)-5-(p-tolyl)-1,4-dihydropyridin-3-carboxamide]",< 10 nM,0.818 h,28.2 µL/min/mg
"COc1cc2nccc(Oc3ccc(NC(=O)c4cc(-c5ccc(C)cc5)cn(CC5CCOCC5)c4=O)nc3)c2cc1OC [Compound 13, N-(5-((6,7-dimethoxyquinolin-4-yl)oxy)pyridin 2yl)-2-oxo-1-((tetrahydro-2H-pyran-4-yl)methyl)-5-(p-tolyl)-1,2-dihydropyridin-3-carboxamide]",≤ 3.1 nM,,
"COc1cc2nccc(Oc3ccc(NC(=O)c4cn(CC5CCOCC5)cc(-c5ccc(C)cc5)c4=O)nn3)c2cc1OC [Compound 24, N-(6-((6,7-dimethoxyquinolin-4-yl)oxy)pyridazin-3-yl)-4-oxo-1-((tetrahydro-2H-pyran-4-yl)methyl)-5-(p-tolyl)-1,4-dihydropyridin-3-carboxamide]",< 10 nM,,
"COc1cc2nccc(Oc3ccc(NC(=O)c4cn(CC5CCOCC5)c5ccccc5c4=O)nc3)c2cc1OC [Compound 25, N-(5-((6,7-dimethoxyquinolin-4-yl)oxy)pyridin-2-yl)-4-oxo-1-((tetrahydro-2H-pyran-4-yl)methyl)-1,4-dihydroquinolin-3-carboxamide]",≤ 503 nM,,
"COc1cc2nccc(Oc3ccc(NC(=O)c4cn(C5CCOCC5)cc(-c5ccc(F)cc5)c4=O)nc3)c2cc1OC [Compound 27, N-(5-((6,7-dimethoxyquinolin-4-yl)oxy)pyridin-2-yl)-5-(4-fluorophenyl)-4-oxo-1-(tetrahydro-2H-pyran-4-yl)-1,4-dihydropyridin-3-carboxamide]",,5.02 h,4.6 µL/min/mg
COc1cc2nccc(Oc3ccc(NC(=O)c4nn(C5CCOCC5)cc(-c5ccc(C)cc5)c4=O)cc3F)c2cc1OC [Compound 28],,1.44 h,16 µL/min/mg
"Cc1ccc(-c2cn(C3CCOCC3)nc(C(=O)Nc3ccc(Oc4ccnc5cc6c(cc45)OCO6)cn3)c2=O)cc1 [Compound 29, N-(5-([1,3]dioxolo[4,5-g]quinolin-8-yloxy)pyridin-2-yl)-4-oxo-1-(tetrahydro-2H-pyran-4-yl)-5-(p-tolyl)-1,4-dihydropyridazin-3-carboxamide]",,1.6 h,14.4 µL/min/mg
"Cc1ccc(-c2cn(C3CCOCC3)nc(C(=O)Nc3ccc(Oc4ccnc5cc6c(cc45)OCCO6)cn3)c2=O)cc1 [Compound 30, N-(5-((2,3-dihydro-[1,4]dioxino[2,3-g]quinolin-9-yl)oxy)pyridin-2-yl)-4-oxo-1-(tetrahydro-2H-pyran-4-yl)-5-(p-tolyl)-1,4-dihydropyridazin-3-carboxamide]",,1.38 h,16.8 µL/min/mg
"COc1cc2nccc(Oc3cnc(NC(=O)c4cn(C5CCOCC5)cc(-c5ccc(F)cc5)c4=O)nc3)c2cc1OC [Compound 31, N-(5-((6,7-dimethoxyquinolin-4-yl)oxy)pyrimidin-2-yl)-5-(4-fluorophenyl)-4-oxo-1-(tetrahydro-2H-pyran-4-yl)-1,4-dihydropyridin-3-carboxamide]",,6.42 h,3.6 µL/min/mg
"COc1cc2nccc(Oc3ccc(NC(=O)c4cc(CC5CCOCC5)cn(-c5ccc(F)cc5)c4=O)nc3)c2cc1OC [Compound 32, N-(5-((6,7-dimethoxyquinolin-4-yl)oxy)pyridin-2-yl)-1-(4-fluorophenyl)-2-oxo-5-((tetrahydro-2H-pyran-4-yl)methy 1)-1,2-dihydropyridin-3-carboxamide]",,1.39 h,16.6 µL/min/mg
"COc1cc2nccc(Oc3cnc(NC(=O)c4nn(C5CCOCC5)cc(-c5ccc(F)cc5)c4=O)nc3)c2cc1OC [Compound 33, N-(5-((6,7-dimethoxyquinolin-4-yl)oxy)pyrimidin-2-yl)-5-(4-fluorophenyl)-4-oxo-1-(tetrahydro-2H-pyran-4-yl)-1,4-dihydropyridazin-3-carboxamide]",,4.82 h,4.8 µL/min/mg
"COc1cc2nccc(Oc3ccc(NC(=O)c4nn(C5CCOCC5)cc(-c5ccc(F)cc5)c4=O)nc3)c2cc1OC [Compound 34, N-(5-((6,7-dimethoxyquinolin-4-yl)oxy)pyridin-2-yl)-5-(4-fluorophenyl)-4-oxo-1-(tetrahydro-2H-pyran-4-yl)-1,4-dihydropyridazin-3-carboxamide]",,5.25 h,4.4 µL/min/mg
